Assay results taken from ChEMBL document CHEMBL4138125, “Recent advances in discovery and development of natural products as source for anti-Parkinson's disease lead compounds” (2017).

What was measured:
Assay type in all cases: functional
[1] = Neuroprotective activity in OF1/SPF […] brain dopaminergic neurons assessed as suppression of short-term rotenone -induced cell death at 0.1 to 10 uM pre-incubated for 4 days starting from day 8 before rotenone challenge for 48 hrs
[2] = Neuroprotective activity in OF1/SPF […] brain dopaminergic neurons assessed as suppression of MPP+-induced cell death at 0.1 to 10 uM pre-incubated for 4 days tarting from day 8 before MPP+ challenge for 48 hrs
[3] = Neuroprotective activity in OF1/SPF […] brain dopaminergic neurons assessed as suppression of long-term rotenone-induced cell death at 0.1 to 10 uM incubated concomitantly with rotenone from days 6 to 12

## CC1=CC(=O)C(C(C)C)=CC1=O [THYMOQUINONE]
[1]
  Activity: 33%
[2]
  Activity: 40%
[3]
  Activity: 24%
